Laboratory results taken from PMC11788587, “Validating Low‐Dose Iohexol as a Marker for Glomerular Filtration Rate by In Vitro and In Vivo Studies” (Clinical and Translational Science, 2025).
Where two headings read alike, the source gives them in different places.

Legend:
hOATP1B3 = biological target: T1, hOATP1B3 (Homo sapiens, UniProt Q9NPD5); experiment: Inhibition of hOATP1B3-mediated 3H-BSP uptake, stably transfected 293 cells; format: cell-based; conditions: substrate 0.02 μM 3H-BSP, median (95% CI)
T1 construct: expressed in transfected cells; host or cells: 293 cells (control: empty vector)
T1 sequence (Q9NPD5 1-702): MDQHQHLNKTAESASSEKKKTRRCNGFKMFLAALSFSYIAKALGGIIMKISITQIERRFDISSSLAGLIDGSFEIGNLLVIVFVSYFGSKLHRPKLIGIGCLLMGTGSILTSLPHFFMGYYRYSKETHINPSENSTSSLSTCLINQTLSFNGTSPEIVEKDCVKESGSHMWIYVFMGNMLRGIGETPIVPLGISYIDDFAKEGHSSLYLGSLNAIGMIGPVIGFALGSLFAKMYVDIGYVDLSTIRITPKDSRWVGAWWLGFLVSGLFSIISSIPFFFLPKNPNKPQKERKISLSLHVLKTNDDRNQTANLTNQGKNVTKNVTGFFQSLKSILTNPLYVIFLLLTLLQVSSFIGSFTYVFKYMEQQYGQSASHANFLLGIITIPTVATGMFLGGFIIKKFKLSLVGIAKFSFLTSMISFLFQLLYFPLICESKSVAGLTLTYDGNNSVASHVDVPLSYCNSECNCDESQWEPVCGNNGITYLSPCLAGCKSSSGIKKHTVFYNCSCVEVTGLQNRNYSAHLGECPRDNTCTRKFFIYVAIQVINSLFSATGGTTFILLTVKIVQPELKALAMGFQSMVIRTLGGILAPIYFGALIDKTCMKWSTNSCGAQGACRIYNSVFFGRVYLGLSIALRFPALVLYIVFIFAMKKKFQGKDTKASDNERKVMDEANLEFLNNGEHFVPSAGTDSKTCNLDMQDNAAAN
Description: We characterized the inhibitory potential of iohexol on major drug transporters recommended by regulatory agencies, which were previously assessed in a clinical transporter phenotyping cocktail study. These transporters include hOAT1, hOAT3, hOCT1, hOCT2, hMATE1, hMATE2K, human organic anion transporter polypeptides (hOATP)1B1, hOATP1B3, and human multidrug resistance protein (hMDR)1. Additionally, we investigated whether iohexol is a substrate for any of the renal transporters among these, including hOAT1/3, hOCT1/2, and hMATE1/2K. Cell‐based uptake assays were used to assess the activities of hOAT1/3, hOCT1/2, hMATE1/2K, and hOATP1B1/1B3. Inside‐out membrane vesicle uptake assays were used to evaluate the activity of hMDR1.
To determine the maximal inhibitory potential of iohexol, intracellular accumulation of a standard substrate was measured with and without the clinically relevant highest concentrations of iohexol. Control inhibitors were tested in each experiment.
In all subsequent in vitro studies, control experiments were conducted to validate the results. […] Each condition, including cells or vesicles with the transporter and their respective controls, was analyzed in at least three replicates. […]
Uptake assays were carried out with stably transfected 293 cells expressing hOATP1B1 or hOATP1B3, as well as cells containing an empty vector, using the method described by Hsin CH, et al..^1 For the inhibition assays, cells were incubated with the radiolabeled standard substrates specific to each transporter: 0.01 μM ^3H-estrone sulfate for hOATP1B1, and 0.02 μM ^3H-bromosulphophthalein (BSP) for hOATP1B3. […] The accumulation of radio-labelled probe substrates (^3H) in the cell lysate is determined using a Tri-Carb 2810 liquid scintillation counter (PerkinElmer, Waltham, MA, USA) as described previously.^1 Cellular protein amount was determined in parallel from 6 paired wells per cell line and experimental day, using the Bradford method.^2 The 1X lysis buffer (5X lysis buffer from Promega, diluted 1+4 [v/v] in ddH2O) was used as the lysis buffer. […]

[1] = cited from earlier work
[2] = test system: rat‐isolated perfused kidney; design: method as in ref 14 Masereeuw et al.; conditions: mean ± standard deviation, ref 14 Masereeuw et al., cited from earlier work
[3] = design: method as in PMID 32989831, PMID 30449032; conditions: cited from earlier work

CC(=O)N(CC(O)CO)c1c(I)c(C(=O)NCC(O)CO)c(I)c(C(=O)NCC(O)CO)c1I (centres unmarked) [iohexol]
Inhibitory effect (% reduction of specific activity) (hOATP1B3; 20 mM iohexol): no notable inhibitory effects | inhibition at 7 min, 2 mM (hOATP1B3; human, stably transfected 293 cells expressing hOATP1B3, probe 3H-bromosulphophthalein (BSP), 2 mM iohexol, read-out: Inhibitory effect (% reduction of specific activity)): -2.5% | inhibition at 7 min, 20 mM (hOATP1B3; human, stably transfected 293 cells expressing hOATP1B3, probe 3H-bromosulphophthalein (BSP), 20 mM iohexol, read-out: Inhibitory effect (% reduction of specific activity)): -21% | Volume of distribution, previous three-compartment model estimate (median) [1]: 15.09 L | Cmax ([1]; following a 3235 mg iohexol injection, patients aged ≥ 70 years, median GFR 60.7 mL/min/1.73 m^2, read-out: Cmax (initial plasma concentration)): ~370 µM | Ratio of renal clearance to GFR ([2]; perfusate concentration 5 μg/mL): 0.63 ± 0.06 | Ratio of renal clearance to GFR ([2]; perfusate concentration 20 μg/mL): 1.02 ± 0.06 | Iohexol clearance under OCT2 and MATE inhibitors [3]: unaffected
